Experimental data as given in patent EP4168403B1 (priority 2020, dated 2021).
“And” between values parts separate entries of the source, which are not always exact repeats. Equal entries are not always repeated.

How the values were obtained:
Tau(306-336) peptide = Tau(306-336) peptide (Homo sapiens, UniProt P10636); settings: Tau(306-336) 50 µM, inhibitor 50 µM (1:1 ratio); mean ± SEM; 50 µM
Experimental: Subsequently, the sample was aliquoted dried and stored at -20 °C.
Fluorescence data were recorded every 10 min overnight with 1 min shaking at 800 rpm prior to each reading. Each inhibitor was assayed in triplicates in at least two independent experiments. […] Inhibition % are expressed as the mean ± SEM. […] Values were averaged and the presented values are expressed as the mean ± SEM.
Fluorescence data were recorded every 10 min overnight with 1 min shaking at 800 rpm prior to each reading.

mice = assay: Object Recognition task (ORT), scopolamine-induced memory impairment; format: in vivo
Experimental: For behavioural studies, 50 swiss female 10-week-old weighing 25-30 g were used. Memory impairment was induced by the potent antimuscarinic drug scopolamine hydrobromide (0.5 mg/kg, Sigma) dissolved in saline buffer. To explore the potential of BIGI-3h as a cognitive enhancer, the compound was administered at a dose of 1 mg/kg and 10 mg/kg. For comparison, the antiamnesic effect of donepezil was tested (Tocris Bioscience, R&D Systems Inc.) at a dose of 1 mg/kg. Both products, 3h and donepezil, were dissolved in saline buffer containing 3.6% dimethyl sulfoxide. All drug solutions were independently prepared immediately before their use and were administered intraperitoneally in 10 mL/kg of vehicle volume. Different batches of mice were used for each experiment. The animals were distributed into 5 experimental groups (I-V): control groups (I) mice administered 3.6% DMSO in saline buffer, labelled as "control vehicle"; experimental groups (II-V) consisted of (II) mice administered scopolamine dissolved in 3.6% DMSO in saline buffer, labelled as "scop/DMSO," (III) mice co-administered scopolamine plus Donepezil, labelled as "Scopo/donep," (IV) and (V) mice co-administrated scopolamine plus BIGI-3h at 1mg/Kg and 10mg/Kg labelled respectively "Scopo/3h 1" "Scopo/3h 10".
Spontaneous object recognition was tested as described previously, 28 with slight modifications. All behavioural experiments took place during the light phase of the 12-h light/ dark cycle between 10 am and 3 pm to minimize the influence of circadian rhythm, and they were conducted with the investigators blind to treatments. […] The total time spent in active exploration of each object during T1 and T2 was determined with a computerized tracking system and image analyzer (Ethovision XT, Noldus Information Technology) that tracked the nose, centre and tail points of each mouse^45. As a criterion of active object exploration, it was measured the time spent by the animal directing its nose to the object at a distance of less than 2 cm and/or touching it with the vibrissae or nose. […]

SH-SY5Y cells = assay: Effect on Aβ25-35 peptide-induced cell death (MTT assay); format: cell-based; settings: Homo sapiens, read-out: increase in cell viability
Experimental: Lyophilized synthetic Aβ25-35 peptide was dissolved in sterile water at a concentration of 2 mM, aliquoted and kept at -80°C until use. Aliquots were diluted in culture medium to achieve a final concentration of 30 µM and incubated for 72h at 37°C to form aggregated amyloid. SH-SY5Y cells were seeded in 96-well culture plates at a density of 12 × 10^4 cells per well in DMEM/F12 (1 :1) medium supplemented with 10% fetal bovine serum, 1X non-essential amino acids, 100 units/ml penicillin and 10 mg/ml streptomycin (Dutscher, France). Cultures were kept under a CO2/air (5%/95%) humidified atmosphere at 37°C. After 24h of incubation, the cultures were treated with 100 µl of the compound BIGI-3h or DMSO (0.1%) in DMEM/F12 (1:1) medium supplemented with 1% fetal bovine serum, 1X non-essential amino acids, 100 units/ml penicillin and 10 mg/ml streptomycin. After 24h of treatment, cells were co-incubated with Aβ25-35 peptide (30 µM) with or without the compound BIGI-3h for an additional period of 24h. MTT assay, a common colorimetric assay for assessing cell metabolic activity, was performed as described below.
The cell viability was assessed by measuring the reduction of MTT (3-(4,5-dimethylthiazol-2-yl)-2,5-diphenyltetrazolium bromide) to a formazan product. […] The absorbance at 570 nm and 630 nm (background) was measured using a microplate reader.

Tau(306-336) peptide, sequence (P10636 623-653 limits assumed): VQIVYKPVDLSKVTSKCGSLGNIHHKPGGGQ

With `CCOC(=O)C1=C(C)N(CCC2CCN(Cc3ccccc3)CC2)C(=O)NC1c1coc2c(Cl)cc(Cl)cc2c1=O` (racemic) [BIGI-3h, ethyl 1-(2-(1-benzylpiperidin-4-yl)ethyl)-4-(6,8-dichloro-4-oxo-4H-chromen-3-yl)-6-methyl-2-oxo-1,2,3,4-tetrahydropyrimidine-5-carboxylate] the “Inhibition of T (306-336) peptide self - aggregation (%)” value (Tau(306-336) peptide) was 73.7% and 73.7 ± 5.4%, the “recognition index / discrimination index (Figure 5)” value (mice; 1 mg/kg intraperitoneally with scopolamine 0.5 mg/kg) was “reversed the short-term memory impairment induced by scopolamine” and the “recognition index / discrimination index (Figure 5)” value (mice; 10 mg/kg intraperitoneally with scopolamine 0.5 mg/kg, **p < 0.01 vs scopo/DMSO) was “significantly improved discrimination index”. It also gave a viability at 10 µM (SH-SY5Y cells) of 40.4% and a viability at 20 µM (SH-SY5Y cells) of 61.4%.
